Assay results: paper PMC6892255, “Identification of a potent small-molecule inhibitor of bacterial DNA repair that potentiates quinolone antibiotic activity in methicillin-resistant Staphylococcus aureus^” (Bioorganic & Medicinal Chemistry, 2019)
Entries after “also recorded” stand apart in the source; their conditions may differ.

What was measured:
[1] = tested on: E. coli K-12 BW25113; experiment: MIC / growth inhibition assay (end-point OD600), single agent; type: cell-based, Escherichia coli; conditions: Escherichia coli, BW25113, end-point OD600 after 18 h, read-out: EC50 E. coli (K12 BW25113) Compound only
Description: Minimum inhibitory concentration (MIC) assays were used to evaluate the antimicrobial activity of compounds against Gram-negative (E. coli) and Gram-positive (S. aureus) bacteria. […] Gram-positive bacteria are more susceptible to small-molecule penetration, and compounds were therefore assessed for growth inhibition against the S. aureus SH1000 strain.
2.1. Biological and biochemical methods
Bacterial strains and culture conditions
Strains utilized in the present study are detailed in Table S1. All strains used were cultivated on Mueller Hinton Agar (MHA) and grown to stationary-phase in Mueller Hinton Broth (MHB) at 37 °C for 16 h, with shaking at 180 r.p.m.
Minimum inhibitory concentration (MIC) assays
MIC assays were performed in 96 well plates and MICs were determined in accordance with the broth microdilution protocol.4 Strains grown to stationary-phase in MHB were adjusted to 5 x 10^5 colony-forming units (CFU)/mL in fresh MHB (100 µL/well) supplemented with DMSO to ensure a constant concentration of 0.5% (v/v) DMSO across all experiments. Where […]
or H2O2 (200 μM). Test compounds were prepared as two-fold serial dilutions. Cells were […]
as the lowest concentration with no visible bacterial growth, and the optical density at 600 nm (OD600) was recorded. OD600 measurements were background corrected against no-inocula control and normalized to DMSO control for dose-response analysis. The EC50 value mean and SEM were calculated from individual EC50 values from three biological replicates. […]

[2] = tested on: SOS response in JE2 cells; experiment: SOS reporter assay (GFP under control of the recA promoter); type: cell-based, Staphylococcus aureus; conditions: for SOS response (normalized GFP fluorescence/cell): JE2 recA-GFP reporter, SOS activated with CFX (10 µM), titration of compound
Description: A SOS reporter system was generated by transformation of JE2 cells with a plasmid containing GFP under control of the recA promoter. Activation of the SOS response in these cells results in expression of GFP which can be monitored by fluorescence intensity. […] IMP-1700 (10) was coupled with N-Boc-ethylenediamine to afford amide 19, followed by removal of the Boc group in 4 M HCl/dioxane and purification using strong cation exchange resin. The resulting free amine 20 was coupled to N-hydroxysuccinimide (NHS)-activated Sepharose resin at 4 °C overnight (Figure 2C), and the remaining NHS sites quenched in Tris buffer. SoluBL21 competent E. coli were transformed with pET28b^+ containing StrepII-tagged AddA and hexahistidine-tagged AddB, and expression induced overnight at 16 °C. […] Beads were washed three times with lysis buffer and bound protein eluted with SDS-PAGE sample buffer, followed by PAGE separation. […]
JE2 transformed with SOS-inducible pCN34 PrecA-gfp reporter plasmid expressing GFP under the control of the recA promoter were grown to late stationary phase at 37 °C in MHB containing kanamycin (90 μg/mL). Stationary phase JE2 culture (1 mL) was centrifuged (17,000 × g, 2 min), the supernatant removed and cells resuspended in assay media (12.5 µM […]
concentration was maintained >12.5 µM and DMSO concentration maintained at 1.5% (v/v).
JE2 culture (20 uL) was added to inhibitor solutions (180 µL) to a final cell density of 4 x 10^7 CFU/mL and samples incubated in a M200-PRO microplate reader (Tecan) at 37 °C with 700 rpm agitation for 17 h. GFP fluorescence intensity and OD600 were measured at 15 min intervals. Measurements were background corrected against no-inocula control and normalized to no-test inhibitor control at mid-exponential growth phase (4.5 h) for dose-response analysis. […]

O=C(O)c1cn(C2CC2)c2cc(N3CCN(C(=S)Nc4ccc(C(F)(F)F)cc4)CC3)c(F)cc2c1=O [Compound 10]
EC50 [1]: 500 ± 50 nM | Effect on cell number (OD600) in SOS reporter assay ([2]; JE2 recA-GFP reporter with CFX (10 µM)): decrease in cell number at low micromolar concentrations | SOS response (normalized GFP fluorescence/cell) [2]: decreased | SOS response (normalized GFP fluorescence/cell) ([2]; listed as IMP-1700): decreased normalized GFP fluorescence/cell; also recorded: decreased SOS response
